Active and inactive are the calls of the source. The rule behind the calls is not given here.
What was measured:
[1] = test system: Human alphaherpesvirus 1; assay: Evaluated for antiviral activity against cutaneous HSV-1 C42 infections in guinea pig; Active; format: functional, organism-based
[2] = test system: Human alphaherpesvirus 1; assay: Evaluated for antiviral activity against cutaneous HSV-1 C42 infections in guinea pig; Not active; format: functional, organism-based

Row | SMILES | Effect [1] | Effect [2]
1 | O=C(O)P(=O)(O)OC12CC3CC(CC(C3)C1)C2 | Active | 
2 | COP(=O)(OC)C(=O)OC(C)C |  | inactive
3 | CCOP(=O)(O)C(=O)Oc1ccc(OC)cc1 | Active | 
4 | O=C(Oc1ccccc1)P(=O)(O)O | Active | 
5 | COP(=O)(OC)C(=O)OC1CCCCC1 |  | inactive
6 | CC(C)OC(=O)P(=O)(O)O |  | inactive
7 | COP(=O)(O)C(=O)O | Active | 
8 | COP(=O)(OC)C(=O)Oc1ccccc1 |  | inactive
9 | O=C(O)P(=O)(O)O | Active | 
10 | CCOP(=O)(OCC)C(=O)Oc1ccc(Cl)cc1 |  | inactive
11 | CCCCOP(=O)(O)C(=O)OC |  | inactive
12 | COP(=O)(O)C(=O)Oc1ccccc1 | Active | 
13 | COC(=O)P(=O)(O)Oc1ccc2c(c1)CCC2 |  | inactive
14 | Cc1ccc(OP(=O)(O)C(=O)O)cc1 | Active | 
15 | COP(=O)(OC)C(=O)OCC1CCCC1 |  | inactive
16 | CCOP(=O)(O)C(=O)O | Active | 
17 | Cc1ccc(OP(=O)(O)C(=O)Oc2ccccc2)cc1 | Active | 
18 | CC(C)OP(=O)(OC(C)C)C(=O)Oc1ccc([N+](=O)[O-])cc1 |  | inactive
19 | O=C(OCc1ccccc1)P(=O)(O)O |  | inactive

Row | SMILES | Effect [1] | Effect [2]
20 | CCCCOP(=O)(OCCCC)C(=O)OC |  | inactive
21 | CCOC(=O)c1ccc(OC(=O)P(=O)(OC)OC)cc1 |  | inactive
22 | COc1ccc(OC(=O)P(=O)(O)O)cc1 | Active | 
23 | CCOP(=O)(Oc1ccc(C(C)=O)cc1)C(=O)OC (configuration not stated) |  | inactive
24 | Cc1ccc(OP(=O)(Oc2ccc(C)cc2)C(=O)Oc2ccccc2)cc1 | Active | 
25 | COP(=O)(OC)C(=O)Oc1ccc(Cl)c(Cl)c1 |  | inactive
26 | CCOC(=O)c1ccc(OC(=O)P(=O)(OCC)OCC)cc1 |  | inactive
27 | O=C(Oc1ccccc1)P(=O)(Oc1ccccc1)Oc1ccccc1 | Active | 
28 | Cc1cccc(C)c1OP(=O)(O)C(=O)O | Active | 
29 | COC(=O)P(=O)(OC(C)C)OC(C)C |  | inactive
30 | COP(=O)(O)C(=O)OCc1ccccc1 |  | inactive
31 | O=C(O)P(=O)(O)Oc1ccc2c(c1)CCC2 | Active | 
32 | CCOP(=O)(Oc1c(C)cccc1C)C(=O)OC (configuration not stated) |  | inactive
33 | O=C(Oc1ccc(Cl)cc1)P(=O)(O)O | Active | 
34 | COP(=O)(OC)C(=O)OCc1ccccc1 |  | inactive
35 | COP(=O)(OC)C(=O)Oc1ccc([N+](=O)[O-])cc1 |  | inactive
36 | O=C(Oc1ccccc1)P(=O)(O)Oc1ccccc1 | Active | 
37 | CCOP(=O)(Oc1ccc(Cl)cc1)C(=O)Oc1ccccc1 (configuration not stated) | Active | 
38 | CCOC(=O)P(=O)(O)O |  | inactive

Row | SMILES | Effect [1] | Effect [2]
39 | COC(=O)P(=O)(OC)OC12CC3CC(CC(C3)C1)C2 (configuration not stated) |  | inactive
40 | O=C(OCC1CCCC1)P(=O)(O)O |  | inactive
41 | CCCCOC(=O)P(=O)(OC)OC |  | inactive
42 | CCCCOC(=O)P(=O)(O)O |  | inactive
43 | CCOC(=O)P(=O)(O)Oc1ccccc1 |  | inactive
44 | CCOP(=O)(O)C(=O)Oc1ccc(Cl)cc1 | Active | 
45 | CCOP(=O)(Oc1ccc2c(c1)CCC2)C(=O)OC (configuration not stated) |  | inactive
46 | O=C(Oc1ccc(Cl)c(Cl)c1)P(=O)(O)O | Active | 
47 | CCOP(=O)(OCC)C(=O)Oc1ccc(OC)cc1 |  | inactive
48 | COP(=O)(OC)C(=O)Oc1ccc(C)cc1 |  | inactive
49 | CCOP(=O)(Oc1ccc(OC)cc1)C(=O)Oc1ccccc1 (configuration not stated) | Active | 
50 | CCOC(=O)P(=O)(O)OCC |  | inactive
51 | COC(=O)P(=O)(OC)Oc1ccc(C(C)=O)cc1 (configuration not stated) |  | inactive
52 | Cc1ccc(OC(=O)P(=O)(O)O)cc1 | Active | 
53 | COC(=O)P(=O)(O)Oc1c(C)cccc1C |  | inactive
54 | COc1ccc(OP(=O)(O)C(=O)O)cc1 | Active | 
55 | O=C(OC1CCCCC1)P(=O)(O)O |  | inactive
56 | O=C(O)P(=O)(O)Oc1ccccc1 | Active | 
57 | CCOC(=O)c1ccc(OC(=O)P(=O)(O)O)cc1 | Active | 
